Laboratory results: PubChem BioAssay (NCI)
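Five compound concentrations were applied to cells in 96-well plates for 48 hours; endpoints were derived by simple linear interpolation of the resulting dose-response curve. TGI is the concentration that stops growth completely.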

Key:
Experiment in all cases: inhibition of tumour cell growth, NCI panel, 48 h
OVCAR-4 ovarian = test system: OVCAR-4 ovarian
SF-268 CNS = test system: SF-268 CNS
CAKI-1 renal = test system: CAKI-1 renal
TK-10 renal = test system: TK-10 renal
786-0 renal = test system: 786-0 renal
HCT-116 colon = test system: HCT-116 colon
NCI-H226 lung = test system: NCI-H226 lung
MALME-3M melanoma = test system: MALME-3M melanoma
BT-549 breast = test system: BT-549 breast
COLO 205 colon = test system: COLO 205 colon
MCF7 breast = test system: MCF7 breast
NCI-H460 lung = test system: NCI-H460 lung
MDA-N = test system: MDA-N
PC-3 prostate = test system: PC-3 prostate
OVCAR-5 ovarian = test system: OVCAR-5 ovarian
DU-145 prostate = test system: DU-145 prostate
NCI-H23 lung = test system: NCI-H23 lung
SNB-75 CNS = test system: SNB-75 CNS
UO-31 renal = test system: UO-31 renal
HCT-15 colon = test system: HCT-15 colon
ACHN renal = test system: ACHN renal
T-47D breast = test system: T-47D breast
SF-539 CNS = test system: SF-539 CNS
UACC-62 melanoma = test system: UACC-62 melanoma
HCC-2998 colon = test system: HCC-2998 colon
SK-OV-3 ovarian = test system: SK-OV-3 ovarian
SK-MEL-2 melanoma = test system: SK-MEL-2 melanoma
SN12C renal = test system: SN12C renal
UACC-257 melanoma = test system: UACC-257 melanoma
SK-MEL-5 melanoma = test system: SK-MEL-5 melanoma
M14 melanoma = test system: M14 melanoma
EKVX NSCLC = test system: EKVX NSCLC
NCI/ADR-RES ovarian = test system: NCI/ADR-RES ovarian
RXF 393 renal = test system: RXF 393 renal
MDA-MB-231 breast = test system: MDA-MB-231 breast
SR leukemia = test system: SR leukemia
U251 CNS = test system: U251 CNS
HOP-62 NSCLC = test system: HOP-62 NSCLC
CCRF-CEM leukemia = test system: CCRF-CEM leukemia
IGROV1 ovarian = test system: IGROV1 ovarian
NCI-H522 lung = test system: NCI-H522 lung
LOX IMVI melanoma = test system: LOX IMVI melanoma
A498 renal = test system: A498 renal
SF-295 CNS = test system: SF-295 CNS
K-562 leukemia = test system: K-562 leukemia
HL-60(TB) leukemia = test system: HL-60(TB) leukemia
OVCAR-8 ovarian = test system: OVCAR-8 ovarian
HS 578T breast = test system: HS 578T breast
OVCAR-3 ovarian = test system: OVCAR-3 ovarian
SK-MEL-28 melanoma = test system: SK-MEL-28 melanoma
HOP-92 NSCLC = test system: HOP-92 NSCLC
MOLT-4 leukemia = test system: MOLT-4 leukemia
SNB-19 CNS = test system: SNB-19 CNS
SW-620 colon = test system: SW-620 colon
KM12 colon = test system: KM12 colon
A549 NSCLC = test system: A549 NSCLC
RPMI-8226 leukemia = test system: RPMI-8226 leukemia
MDA-MB-435 = test system: MDA-MB-435
HT29 colon = test system: HT29 colon

NCC(=O)N1CCN(c2nc(N3CCCC3)c3nc(Cl)c(NCc4ccccc4)nc3n2)CC1
TGI (OVCAR-4 ovarian): 4.79 µM
TGI (SF-268 CNS): 4.41 µM
TGI (CAKI-1 renal): 6.4 µM
TGI (TK-10 renal): 3.73 µM
TGI (786-0 renal): 3.11 µM
TGI (HCT-116 colon): 3.23 µM
TGI (NCI-H226 lung): 19 µM
TGI (MALME-3M melanoma): 3.73 µM
TGI (BT-549 breast): 3.74 µM
TGI (COLO 205 colon): 3.19 µM
TGI (MCF7 breast): 3.38 µM
TGI (NCI-H460 lung): 3.59 µM
TGI (MDA-N): 3.34 µM
TGI (PC-3 prostate): 7.33 µM
TGI (OVCAR-5 ovarian): 9.87 µM
TGI (DU-145 prostate): 6.82 µM
TGI (NCI-H23 lung): 3.63 µM
TGI (SNB-75 CNS): 3.16 µM
TGI (UO-31 renal): 3.06 µM
TGI (HCT-15 colon): 3.67 µM
TGI (ACHN renal): 4.34 µM
TGI (T-47D breast): 3.03 µM
TGI (SF-539 CNS): 3.58 µM
TGI (UACC-62 melanoma): 3.24 µM
TGI (HCC-2998 colon): 3.03 µM
TGI (SK-OV-3 ovarian): 3.54 µM
TGI (SK-MEL-2 melanoma): 3.42 µM
TGI (SN12C renal): 3.34 µM
TGI (UACC-257 melanoma): 3.24 µM
TGI (SK-MEL-5 melanoma): 3.17 µM
TGI (M14 melanoma): 3.15 µM
TGI (EKVX NSCLC): 3.81 µM
TGI (NCI/ADR-RES ovarian): 36.8 µM
TGI (RXF 393 renal): 2.89 µM

O=CC1OC(=O)c2cc(O)c(O)c(O)c2-c2c(cc(O)c(O)c2O)C(=O)OC1C(O)C(O)CO (configuration not stated)
TGI (OVCAR-4 ovarian): 37.8 µM
TGI (SF-268 CNS): > 100 µM
TGI (MDA-MB-231 breast): 35.8 µM
TGI (SR leukemia): 51.3 µM
TGI (U251 CNS): 32.3 µM
TGI (CAKI-1 renal): 35.9 µM
TGI (TK-10 renal): > 100 µM
TGI (786-0 renal): > 100 µM
TGI (HOP-62 NSCLC): > 100 µM
TGI (HCT-116 colon): 81.1 µM
TGI (CCRF-CEM leukemia): 85.5 µM
TGI (IGROV1 ovarian): > 100 µM
TGI (NCI-H522 lung): > 100 µM
TGI (NCI-H226 lung): > 100 µM
TGI (LOX IMVI melanoma): 31.4 µM
TGI (A498 renal): > 100 µM
TGI (SF-295 CNS): 67.9 µM
TGI (MALME-3M melanoma): > 100 µM
TGI (K-562 leukemia): 44.2 µM
TGI (BT-549 breast): > 100 µM
TGI (HL-60(TB) leukemia): > 100 µM
TGI (COLO 205 colon): > 100 µM
TGI (MCF7 breast): 39.4 µM
TGI (NCI-H460 lung): > 100 µM
TGI (MDA-N): 36.2 µM
TGI (OVCAR-8 ovarian): 45.8 µM
TGI (PC-3 prostate): 31.9 µM
TGI (HS 578T breast): > 100 µM
TGI (OVCAR-3 ovarian): > 100 µM
TGI (SK-MEL-28 melanoma): > 100 µM
TGI (OVCAR-5 ovarian): > 100 µM
TGI (DU-145 prostate): > 100 µM
TGI (HOP-92 NSCLC): > 100 µM
TGI (NCI-H23 lung): > 100 µM
TGI (SNB-75 CNS): > 100 µM
TGI (UO-31 renal): > 100 µM
TGI (HCT-15 colon): > 100 µM
TGI (ACHN renal): > 100 µM
TGI (MOLT-4 leukemia): 56.8 µM
TGI (SNB-19 CNS): > 100 µM
TGI (SF-539 CNS): > 100 µM
TGI (SW-620 colon): 32.9 µM
TGI (KM12 colon): > 100 µM
TGI (A549 NSCLC): > 100 µM
TGI (HCC-2998 colon): > 100 µM
TGI (SK-MEL-2 melanoma): > 100 µM
TGI (SN12C renal): > 100 µM
TGI (RPMI-8226 leukemia): 72.4 µM
TGI (UACC-257 melanoma): > 100 µM
TGI (SK-MEL-5 melanoma): > 100 µM
TGI (M14 melanoma): > 100 µM
TGI (EKVX NSCLC): > 100 µM
TGI (NCI/ADR-RES ovarian): > 100 µM
TGI (RXF 393 renal): > 100 µM
TGI (MDA-MB-435): 32.9 µM
TGI (HT29 colon): 46.8 µM

CC1C(c2ccc3c(c2)OCO3)c2cc3c(cc2OC1N1CCCCC1)OCO3 (configuration not stated)
TGI (SF-268 CNS): > 100 µM
TGI (SR leukemia): > 100 µM
TGI (CAKI-1 renal): 79.9 µM
TGI (TK-10 renal): > 100 µM
TGI (786-0 renal): > 100 µM
TGI (HOP-62 NSCLC): > 100 µM
TGI (HCT-116 colon): > 100 µM
TGI (CCRF-CEM leukemia): > 100 µM
TGI (IGROV1 ovarian): > 100 µM
TGI (NCI-H522 lung): > 100 µM
TGI (LOX IMVI melanoma): > 100 µM
TGI (SF-295 CNS): > 100 µM
TGI (K-562 leukemia): > 100 µM
TGI (COLO 205 colon): > 100 µM
TGI (MCF7 breast): > 100 µM
TGI (NCI-H460 lung): > 100 µM
TGI (MDA-N): 48.6 µM
TGI (OVCAR-8 ovarian): > 100 µM
TGI (PC-3 prostate): > 100 µM
TGI (HS 578T breast): > 100 µM
TGI (OVCAR-3 ovarian): > 100 µM
TGI (SK-MEL-28 melanoma): > 100 µM
TGI (OVCAR-5 ovarian): > 100 µM
TGI (DU-145 prostate): > 100 µM
TGI (NCI-H23 lung): > 100 µM
TGI (UO-31 renal): > 100 µM
TGI (HCT-15 colon): > 100 µM
TGI (ACHN renal): > 100 µM
TGI (T-47D breast): > 100 µM
TGI (MOLT-4 leukemia): > 100 µM
TGI (SNB-19 CNS): > 100 µM
TGI (SF-539 CNS): > 100 µM
TGI (UACC-62 melanoma): > 100 µM
TGI (SW-620 colon): > 100 µM
TGI (KM12 colon): > 100 µM
TGI (A549 NSCLC): > 100 µM
TGI (HCC-2998 colon): > 100 µM
TGI (SK-MEL-2 melanoma): > 100 µM
TGI (SN12C renal): > 100 µM
TGI (RPMI-8226 leukemia): > 100 µM
TGI (UACC-257 melanoma): > 100 µM
TGI (SK-MEL-5 melanoma): > 100 µM
TGI (M14 melanoma): > 100 µM
TGI (EKVX NSCLC): > 100 µM
TGI (NCI/ADR-RES ovarian): > 100 µM
TGI (MDA-MB-435): 62.8 µM
TGI (HT29 colon): > 100 µM

CCn1c(-c2ccc(C)cc2)cs/c1=N\C(P(=O)(O)O)P(=O)(O)O
TGI (SF-268 CNS): > 100 µM
TGI (MDA-MB-231 breast): > 100 µM
TGI (SR leukemia): > 100 µM
TGI (U251 CNS): > 100 µM
TGI (CAKI-1 renal): > 100 µM
TGI (TK-10 renal): > 100 µM
TGI (786-0 renal): > 100 µM
TGI (HOP-62 NSCLC): > 100 µM
TGI (HCT-116 colon): > 100 µM
TGI (CCRF-CEM leukemia): > 100 µM
TGI (IGROV1 ovarian): > 100 µM
TGI (NCI-H522 lung): > 100 µM
TGI (NCI-H226 lung): > 100 µM
TGI (LOX IMVI melanoma): > 100 µM
TGI (A498 renal): > 100 µM
TGI (SF-295 CNS): > 100 µM
TGI (MALME-3M melanoma): > 100 µM
TGI (K-562 leukemia): > 100 µM
TGI (BT-549 breast): > 100 µM
TGI (HL-60(TB) leukemia): > 100 µM
TGI (COLO 205 colon): > 100 µM
TGI (MCF7 breast): > 100 µM
TGI (NCI-H460 lung): > 100 µM
TGI (MDA-N): > 100 µM
TGI (OVCAR-8 ovarian): > 100 µM
TGI (PC-3 prostate): > 100 µM
TGI (HS 578T breast): > 100 µM
TGI (OVCAR-3 ovarian): > 100 µM
TGI (SK-MEL-28 melanoma): > 100 µM
TGI (OVCAR-5 ovarian): > 100 µM
TGI (DU-145 prostate): > 100 µM
TGI (HOP-92 NSCLC): > 100 µM
TGI (NCI-H23 lung): > 100 µM
TGI (SNB-75 CNS): > 100 µM
TGI (UO-31 renal): > 100 µM
TGI (HCT-15 colon): > 100 µM
TGI (ACHN renal): > 100 µM
TGI (MOLT-4 leukemia): > 100 µM
TGI (SNB-19 CNS): > 100 µM
TGI (SF-539 CNS): > 100 µM
TGI (UACC-62 melanoma): > 100 µM
TGI (SW-620 colon): > 100 µM
TGI (KM12 colon): > 100 µM
TGI (A549 NSCLC): > 100 µM
TGI (HCC-2998 colon): > 100 µM
TGI (SK-OV-3 ovarian): > 100 µM
TGI (RPMI-8226 leukemia): > 100 µM
TGI (UACC-257 melanoma): > 100 µM
TGI (SK-MEL-5 melanoma): > 100 µM
TGI (M14 melanoma): > 100 µM
TGI (EKVX NSCLC): > 100 µM
TGI (NCI/ADR-RES ovarian): > 100 µM
TGI (RXF 393 renal): > 100 µM
TGI (MDA-MB-435): > 100 µM
TGI (HT29 colon): > 100 µM
